“And” between values parts separate entries of the source, which are not always exact repeats. Equal values may be shown once. Read-outs that look alike come from different tables or passages of the source.
How the values were obtained:
Gram-positive bacteria [1] = conditions: previously examined peptide; cited from earlier work
E. coli ATCC 25922 [2] = assay: Antibiotic interaction assay (Wimley), 2/3 broth microdilution: MIC alone, MIC of combination, FICI; format: cell-based; conditions: for FICI of peptide with colistin: labelled peptide + colistin; for FICI of peptide with linezolid: labelled peptide + linezolid
Procedure, shortened: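 Broth microdilution in MH broth with ⅔-fold serial dilutions: each compound alone and a half-and-half peptide/drug mix, inoculum 5×10^5 CFU/mL. Incubation at 37° C for 18 h, growth read as OD600. Synergy expressed as FICI.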

[3] = test system: Escherichia coli (ATCC 25922); conditions: peptide alone; peptide concentration required to inhibit growth by 20% (so in the source)
Protocol: (§1) The N-terminus of the peptides were acetylated and the C-terminus was amidated. The kinked structure can rapidly reduce the alpha-helical content, thereby greatly reducing the toxicity of the peptide against host cells. In addition, because of the potential to show specificity for the Gram-negative bacterial membrane, Pro-mutants were prepared by site-directed mutagenesis. Using the prepared peptides, their MIC for the Gram-negative bacterium E. coli and the Gram-positive bacterium S. aureus and their hemolytic activity for host cells were examined (Table 1).
To measure the synergy between the membrane-activating peptides and the repositioning drug, a 10× compound was prepared, and then serially diluted ⅔-fold with distilled water. An MH broth (900 μl) was added to and mixed with the 10× compound (100 μl), and then 200 μL of the mixture was taken and added to a 96-well plate. E. coli cultured for one day was adjusted to 0.5 MCF using MCFarland, and diluted 10-fold, and then 10 μl of the dilution was added to each well of the plate (5×10^5 CFU/mL). After addition of the bacterial cells, plate was incubated at 37° C. for 18 hours, and then the OD value at UV-Vis (600 nm) was measured. Cell viability (%)=(OD600 of sample−OD600 of negative control)/(OD600 of positive control−OD600 of negative control)×100.

[4] = test system: Staphylococcus aureus (ATCC 29213); assay: MIC of peptide against S. aureus; format: cell-based; conditions: peptide alone
Protocol: as §1

Gram-positive bacteria [5] = assay: Entry of peptide into Gram-positive bacteria; format: cell-based; conditions: data not shown
From the text: (§2) […]. […] […].

MDA MB231 cells = assay: FACS penetration of eukaryotic cells; format: cell-based; conditions: 5 microM
From the text: as §2

E. coli [6] = assay: FACS of TAMRA-labeled peptides entering Gram-negative bacteria; format: cell-based
E. coli ATCC 25922 [7] = conditions: for MIC (μM) against E. coli ATCC 25922, Peptide alone: bacterial growth <10% of control
E. coli [8] = assay: NPN fluorescence, penetration into outer membrane; format: cell-based; conditions: FIG. 5
Protocol: Penetration into the microbial outer membrane was measured by the fluorescence intensity of NPN-treated E. coli (λex=355 nm, λem=405 nm). An E. coli suspension (8×10^7 cells/mL) was centrifuged at 13000 rpm at 25° C. for 10 minutes, and suspended in 5 mM HEPES buffer (pH 7.2). NPN was added to the E. coli suspension to a final NPN concentration of 5 μM. The fluorescence intensity of the E. coli suspension was measured using the FL-55 fluorometer. The peptide together with 5 μM NPN was added to the E. coli suspension.

E. coli NDm-1 = assay: Confocal microscopy of TAMRA-conjugated peptide; format: cell-based; conditions: 2.5 μM peptide, 30 minutes, FIG. 8
Protocol: E. coli NDm-1 was diluted when it reached OD600=0.5. The microorganism was treated with 2.5 μM of the peptide in a 37° C. incubator for 30 minutes. LK-L12P was used as a positive control.

E. coli [9] = assay: SYTOX Green membrane penetrability by FACS; format: cell-based; conditions: FIG. 6
Protocol: In the second experiment, whether the peptides would have the ability to disrupt both the outer wall and inner wall of bacteria was examined. To this end, the fluorescent dye Sytox Green capable of specifically staining DNA was used, and penetrability into the microbial membrane was evaluated from the average fluorescence intensity of E. coli treated with SYTOX Green. An E. coli suspension (2×10^8 cells/mL) was incubated with the three peptides in the presence of SYTOX Green (2.5 μM) for 10 minutes, respectively. Penetrability was quantified by a (fluorescence activated cell sorter (FACS). The average fluorescence intensity of 1×10^4 gate cells was measured. Melittin (control) is a pore-forming peptide that disrupts the microbial cell membrane.

For RAGLQFPVGRVHRLLRK [buforin 5-20], the “activity against Gram-positive bacteria” value (Gram-positive bacteria [1]) is listed as “no activity against Gram-positive bacteria”, the “FICI of peptide with colistin” value (E. coli ATCC 25922 [2]) is listed as 0.5 and the “FICI of peptide with linezolid” value (E. coli ATCC 25922 [2]) is listed as 0.7. For the same sequence, the “MIC [μM] Against E. coli” value [3] was 20 µM.
With LKKLLKLPKKLLKL [LK-L8P] the “MIC [μM] Against S. aureus” value [4] was over 40 µM, the “entry into Gram-positive bacteria” value (Gram-positive bacteria [5]) was “did not enter Gram-positive bacteria” and the “penetration of eukaryotic cells” value (MDA MB231 cells) was “did not penetrate eukaryotic cells”. For the same sequence, the “extent to which the mutated peptides entered Gram-negative bacteria (order)” value (E. coli [6]; TAMRA-labeled, FIG. 1) was “P>>N=D>Q=E”, the “portion of the peptide that entered Gram-negative bacteria” value (E. coli [6]; peptide about 2.5 microM) was “about 60%” and the “Fractional Inhibitory Concentration Index (FICI), Colistin & 1 μM peptide” value (E. coli ATCC 25922 [7]; Table 4) was 0.83, Synergism. The “MIC (μM) against E. coli ATCC 25922, Peptide alone” value (E. coli ATCC 25922 [7]; Table 4) was 3 µM and the “MIC [μM] Against E. coli” value [3] was 10 µM.
In the case of KLLKLLKKPLKLLK [KL-L9P], the “MIC [μM] Against S. aureus” value [4] is reported as over 40 µM, the “NPN fluorescence: touching/loosening the outer membrane” value (E. coli [8]) is reported as “better effect of loosening the outer membrane than colistin” and the “MIC (μM) against E. coli ATCC 25922, Peptide alone” value (E. coli ATCC 25922 [7]; Table 4) is reported as 15 µM. The “FICI Against E. coli, Colistin & 1/2 MIC peptide” value (E. coli ATCC 25922 [7]; Table 13, Lys-Ala scanning library) was 0.58, the “FICI Against E. coli, Colistin & 1/2 MIC peptide” value (E. coli ATCC 25922 [7]; Table 15, Leu-Ala scanning) was 0.74 and the “FICI Against E. coli, Colistin & 1/4 MIC peptide” value (E. coli ATCC 25922 [7]; Table 15, Leu-Ala scanning) was 0.55. The “lowering of MIC in combination KL-L9P/colistin/linezolid versus alone” value (E. coli ATCC 25922 [2]) was 12 fold, the “MIC when the three compounds were used alone” value (E. coli ATCC 25922 [2]; Example 7) was 13 µM and the “FICI of peptide with resveratrol” value (E. coli ATCC 25922 [2]; FIG. 10) was 0.2. The “MIC (μM) against E. coli ATCC, combination of two compounds” value (from here on “MIC (μM) … of two compounds”) (E. coli ATCC 25922 [2]; KL-L9P + (S)-ibuprofen, concentration of labelled component) was 2.0 µM, the “MIC (μM) … of two compounds” value (E. coli ATCC 25922 [2]; KL-L9P + cloxacillin, concentration of labelled component) was 3.0 µM and the “MIC (μM) against E. coli ATCC, combination of 3 compounds” value (“MIC (μM) … of 3 compounds” for short) (E. coli ATCC 25922 [2]; KL-L9P + colistin + (S)-ibuprofen, concentration of labelled component) was 1.1 µM. For the same sequence, the “MIC (μM) … of 3 compounds” value (E. coli ATCC 25922 [2]; KL-L9P + colistin + cloxacillin, concentration of labelled component) was 1.6 µM, the “MIC (μM) … of 3 compounds” value (E. coli ATCC 25922 [2]; KL-L9P + colistin + curcumin, concentration of labelled component) was 1.1 µM and the “MIC (μM) … of 3 compounds” value (E. coli ATCC 25922 [2]; KL-L9P + colistin + linezolid, concentration of labelled component) was 1.1 µM. The “MIC (μM) … of 3 compounds” value (E. coli ATCC 25922 [2]; KL-L9P + colistin + simvastatin, concentration of labelled component) was 0.79 µM, the “MIC (μM) … of two compounds” value (E. coli ATCC 25922 [2]; KL-L9P + colistin, concentration of labelled component) was 2.4 µM and the “MIC (μM) … of two compounds” value (E. coli ATCC 25922 [2]; KL-L9P + curcumin, concentration of labelled component) was 1.9 µM. For the same sequence, the “MIC (μM) … of two compounds” value (E. coli ATCC 25922 [2]; KL-L9P + linezolid, concentration of labelled component) was 2.6 µM, the “MIC (μM) … of two compounds” value (E. coli ATCC 25922 [2]; KL-L9P + simvastatin, concentration of labelled component) was 1.3 µM and the MIC (E. coli ATCC 25922 [2]; Tables 19-23, read-out: MIC (μM) against E. coli ATCC, 1 compound alone) was 15 µM. For the same sequence, the “concentration killing E. coli in combination KL-L9P/colistin/linezolid” value (E. coli ATCC 25922 [2]; concentration of labelled component) was 1 µM, the “FICI of peptide with colistin” value (E. coli ATCC 25922 [2]) was 0.26 and the “FICI of peptide with colistin and linezolid” value (E. coli ATCC 25922 [2]; labelled peptide + colistin + linezolid) was 0.28. The “FICI of peptide with linezolid” value (E. coli ATCC 25922 [2]) was 0.40, the “FICI of peptide with simvastatin” value (E. coli ATCC 25922 [2]; labelled peptide + simvastatin) was 0.18 and the “MIC of combination (μM): peptide” value (E. coli ATCC 25922 [2]; peptide concentration in combination with colistin) was 2.6 µM. The “confocal image: membrane leakage / distribution of TAMRA-labeled peptide” value (E. coli NDm-1) was “distributed around the thin peri-cytoplasmic membrane”, the “SYTOX Green DNA staining: ability to degrade or penetrate the inner wall” value (E. coli [9]) was “did not stain DNA” and the “MIC [μM] Against E. coli” value [3] was 20 µM and 12 µM.

From patent US20180339016A1 (priority 2015, published 2018)
